Source: US20040249122A1, “Cationic, amphipathic beta-sheet peptides and uses thereof” (priority 2003, published 2004)
Where a SMILES comes first, the peptide text is derived from it.

Legend:
[1] = test system: Candida albicans (ATCC 14053); details: ATCC 14053
Description: (§1) Antimicrobial and Hemolytic Assays. Antimicrobial susceptibility testing against Staphylococcus aureus (ATCC 29213), Escherichia coli (ATCC 25922), and Pseudomonas aeruginosa (ATCC 27853) was performed using a modification of the National Committee for Clinical Laboratory Standards microdilution broth assay (22). Mueller-Hinton broth (BBL) was used for diluting the peptide stock solution and for diluting the bacterial inoculum. The inoculum was prepared from mid-logarithmic phase cultures. Microtiter plate wells received aliquots-of 100 μL each of the inoculum and peptide dilution. The final concentration of peptide solution ranged-from 0.25 to 256 μg/mL in two-fold dilutions. The final concentration of bacteria in the wells was 5×10^5 CFU/mL. Peptides were tested in duplicate. In addition to the test peptide, three standard peptides and a non-treated growth control were included to validate the assay. The microtiter plates were incubated overnight at 37° C. and the absorbance was measured at 600 nm. […] After incubation at 37° C. for 30 min, the suspension was centrifuged at 10,000×g for 10 min and the absorbance at 400 nm was measured. Complete hemolysis was determined by adding 0.2% Triton X-100 in place of the peptide.
Antimicrobial susceptibility testing against Escherichia coli (ATCC 25922), Staphylococcus aureus (ATCC 29213), Pseudomonas aeruginosa (ATCC 27853), and Candida albicans (ATCC 14053) is performed using a modification of the National Committee for Clinical Laboratory Standards microdilution broth assay. Mueller-Hinton broth (BBL) is used for diluting the peptide stock solution and for diluting the bacterial inoculum. The inoculum is prepared from midlogarithmic phase cultures at an approximate concentration of 10^6 CFU/mL. Microtiter plate wells receive aliquots of 0.1 mL each of the inoculum and peptide dilution. The final concentration of the peptide solution ranges from 0.25 to 256 μg/mL in 2-fold dilutions. The microtiter plates are incubated overnight at 37° C.

[2] = test system: Staphylococcus aureus (ATCC 29213); assay type: cell-based; details: ATCC 29213
Description: as §1, with “Microtiter plate wells received aliquots-of 100 μL each of the inoculum and peptide dilution.” left out, “measured.” for “measured. Complete hemolysis was determined by adding 0.2% Triton X-100 in place of the peptide.”

[3] = test system: Escherichia coli (ATCC 25922); assay type: cell-based; details: ATCC 25922
Description: as §1, with “Microtiter plate wells received aliquots-of 100 μL each of the inoculum and peptide dilution.” left out, “measured.” for “measured. Complete hemolysis was determined by adding 0.2% Triton X-100 in place of the peptide.”

[4] = test system: Pseudomonas aeruginosa (ATCC 27853); assay type: cell-based; details: ATCC 27853
Description: as §1, with “Microtiter plate wells received aliquots-of 100 μL each of the inoculum and peptide dilution.” left out, “measured.” for “measured. Complete hemolysis was determined by adding 0.2% Triton X-100 in place of the peptide.”

human erythrocytes = assay: Hemolysis of human erythrocytes; assay type: cell-based; details: red cells of human, 500
Description: as §1, with “Microtiter plate wells received aliquots-of 100 μL each of the inoculum and peptide dilution.” left out, “measured.” for “measured. Complete hemolysis was determined by adding 0.2% Triton X-100 in place of the peptide.”

SMILES	Minimum Inhibitory Concentration, C. albicans [1]	Minimum Inhibitory Concentration, S. aureus [2]	Minimum Inhibitory Concentration, E. coli [3]	Minimum Inhibitory Concentration, P. aeruginosa [4]	% Hemolysis (500 μg/mL) (human erythrocytes)
CC(C)C[C@H](NC(=O)CNC(=O)[C@H](C)NC(=O)[C@H](CC(C)C)NC(=O)[C@H](CCCCN)NC(=O)[C@H](CCCCN)NC(=O)[C@H](C)NC(=O)[C@H](CC(C)C)NC(=O)CNC(=O)[C@H](C)NC(=O)[C@H](CC(C)C)NC(=O)[C@H](CCCCN)NC(=O)[C@H](CCCCN)NC(=O)[C@H](C)NC(=O)[C@H](CC(C)C)NC(=O)CNC(=O)[C@H](C)NC(=O)[C@H](CC(C)C)NC(=O)[C@@H](N)CCCCN)C(=O)N[C@@H](C)C(=O)N[C@@H](CCCCN)C(N)=O [(KLAGLAK)3-NH2, KLAGLAKKLAGLAKKLAGLAK -NH2] (H-KLAGLAKKLAGLAKKLAGLAK-NH2)	64 µg/mL	16 µg/mL	8 µg/mL	128 µg/mL	9%
CC[C@H](C)[C@H](NC(=O)CN)C(=O)NCC(=O)N[C@@H](CCCCN)C(=O)N[C@@H](Cc1ccccc1)C(=O)N[C@@H](CC(C)C)C(=O)N[C@@H](Cc1c[nH]cn1)C(=O)N[C@@H](CO)C(=O)N[C@@H](C)C(=O)N[C@@H](CCCCN)C(=O)N[C@@H](CCCCN)C(=O)N[C@@H](Cc1ccccc1)C(=O)NCC(=O)N[C@@H](CCCCN)C(=O)N[C@@H](C)C(=O)N[C@@H](Cc1ccccc1)C(=O)N[C@H](C(=O)NCC(=O)N[C@@H](C)C(=O)N[C@H](C(=O)N[C@@H](CCSC)C(=O)N[C@@H](CC(N)=O)C(=O)N[C@@H](CO)C(N)=O)[C@@H](C)CC)C(C)C [A19-Magainin 2-NH2, reference compound] (H-GIGKFLHSAKKFGKAFVGAIMNS-NH2)	128 µg/mL	64 µg/mL	8 µg/mL	16 µg/mL	29%
CC[C@H](C)[C@H](NC(=O)CN)C(=O)NCC(=O)N[C@@H](CCCCN)C(=O)N[C@@H](Cc1ccccc1)C(=O)N[C@@H](CC(C)C)C(=O)N[C@@H](CCCCN)C(=O)N[C@@H](CCCCN)C(=O)N[C@@H](C)C(=O)N[C@@H](CCCCN)C(=O)N[C@@H](CCCCN)C(=O)N[C@@H](Cc1ccccc1)C(=O)NCC(=O)N[C@@H](CCCCN)C(=O)N[C@@H](C)C(=O)N[C@@H](Cc1ccccc1)C(=O)N[C@H](C(=O)N[C@@H](CCCCN)C(=O)N[C@H](C(=O)N[C@@H](CC(C)C)C(=O)N[C@@H](CCCCN)C(=O)N[C@@H](CCCCN)C(N)=O)[C@@H](C)CC)C(C)C [MSI-78, reference compound] (H-GIGKFLKKAKKFGKAFVKILKK-NH2)	64 µg/mL	8 µg/mL	8 µg/mL	4 µg/mL	9%
CC[C@H](C)[C@H](NC(=O)CN)C(=O)NCC(=O)N[C@@H](CCCCN)C(=O)N[C@@H](Cc1ccccc1)C(=O)N[C@@H](CC(C)C)C(=O)N[C@@H](Cc1c[nH]cn1)C(=O)N[C@@H](CO)C(=O)N[C@@H](C)C(=O)N[C@@H](CCCCN)C(=O)N[C@@H](CCCCN)C(=O)N[C@@H](Cc1ccccc1)C(=O)NCC(=O)N[C@@H](CCCCN)C(=O)N[C@@H](C)C(=O)N[C@@H](Cc1ccccc1)C(=O)N[C@H](C(=O)NCC(=O)N[C@@H](CCC(=O)O)C(=O)N[C@H](C(=O)N[C@@H](CCSC)C(=O)N[C@@H](CC(N)=O)C(=O)N[C@@H](CO)C(N)=O)[C@@H](C)CC)C(C)C [Magainin 2-NH2, GIGKFLHSAKKFGKAFVGEIMNS -NH2, reference compound] (H-GIGKFLHSAKKFGKAFVGEIMNS-NH2)	>256 µg/mL	256 µg/mL	64 µg/mL	256 µg/mL	2%
